Assay results published in US6525022B1, “Receptor specific atrial natriuretic peptides” (Genentech, Inc., priority 1993, dated 2003).
Like-named read-outs stand apart in the source and are kept apart here. Where a SMILES comes first, the peptide text is derived from it. Bridges are numbered along the chain shown (N, C = ends). Where no end group is shown, it is not given here. [ ]: non-standard residue; d: D form. Cha = N[C@@H](CC1CCCCC1)C(=O)O; hCys = N[C@@H](CCS)C(=O)O

Assays:
[1] = biological target: human NEP (hNEP), endopeptidase 24.11 (Homo sapiens, UniProt P08473); test: Degradation of ANF variants by human NEP, half-life by HPLC
Protocol: The half-life of various ANF variants was measured according to the following procedure.
ANF Solution: An accurately weighed amount of ANF or variant thereof was diluted with HEPES buffer (5 ml of 1 M HEPES Buffer and 0.1 ml of Tween 20 diluted to a 100 ml volume with DI water) to make a 0.5 mg/ml solution.
hNEP/HEPES Solution: 7.5 μl of a 1 mg/ml solution of hNEP (see U.S. Pat. No. 4,960,700) is dissolved in 992.5 μl of HEPES buffer (as described above) and vortex mixed. The resulting mixture is stored in a silylated Eppendorf tube and periodically checked for activity against an ANF peptide standard.
Assay conditions: 150 μl of an ANF solution in the HEPES buffer is diluted with 820 μl HEPES buffer and vortex mixed (1 sec). Careful note of the time is taken as 30 μl of the hNEP/HEPES solution is added and the solution is vortex mixed for 1 sec. and analyzed by periodic removal of constant volume aliquots by the HPLC autosampler. A 2.5 cm×50 cm, C-18 reversed-phase column (15 micron, 300 Å]) was used and elution was achieved by using a shallow gradient of increasing acetonitrile. The elution conditions consisted of a 10% to 50% acetonitrile (containing 0.1% TFA) gradient at 0.5% min.^−1. The aqueous phase was 0.1% TFA in water. The peak area of the ANP peptide is recorded at these periodic intervals and a half-life is determined from these values.

[2] = biological target: T1, human natriuretic peptide receptor-A (human, UniProt P16066 33-1061); test: competition binding, Table I; tracer and receptor format not given
T1 construct: whole, on cells; also called hNPR-A; human NPR-A
T1 sequence (looked up): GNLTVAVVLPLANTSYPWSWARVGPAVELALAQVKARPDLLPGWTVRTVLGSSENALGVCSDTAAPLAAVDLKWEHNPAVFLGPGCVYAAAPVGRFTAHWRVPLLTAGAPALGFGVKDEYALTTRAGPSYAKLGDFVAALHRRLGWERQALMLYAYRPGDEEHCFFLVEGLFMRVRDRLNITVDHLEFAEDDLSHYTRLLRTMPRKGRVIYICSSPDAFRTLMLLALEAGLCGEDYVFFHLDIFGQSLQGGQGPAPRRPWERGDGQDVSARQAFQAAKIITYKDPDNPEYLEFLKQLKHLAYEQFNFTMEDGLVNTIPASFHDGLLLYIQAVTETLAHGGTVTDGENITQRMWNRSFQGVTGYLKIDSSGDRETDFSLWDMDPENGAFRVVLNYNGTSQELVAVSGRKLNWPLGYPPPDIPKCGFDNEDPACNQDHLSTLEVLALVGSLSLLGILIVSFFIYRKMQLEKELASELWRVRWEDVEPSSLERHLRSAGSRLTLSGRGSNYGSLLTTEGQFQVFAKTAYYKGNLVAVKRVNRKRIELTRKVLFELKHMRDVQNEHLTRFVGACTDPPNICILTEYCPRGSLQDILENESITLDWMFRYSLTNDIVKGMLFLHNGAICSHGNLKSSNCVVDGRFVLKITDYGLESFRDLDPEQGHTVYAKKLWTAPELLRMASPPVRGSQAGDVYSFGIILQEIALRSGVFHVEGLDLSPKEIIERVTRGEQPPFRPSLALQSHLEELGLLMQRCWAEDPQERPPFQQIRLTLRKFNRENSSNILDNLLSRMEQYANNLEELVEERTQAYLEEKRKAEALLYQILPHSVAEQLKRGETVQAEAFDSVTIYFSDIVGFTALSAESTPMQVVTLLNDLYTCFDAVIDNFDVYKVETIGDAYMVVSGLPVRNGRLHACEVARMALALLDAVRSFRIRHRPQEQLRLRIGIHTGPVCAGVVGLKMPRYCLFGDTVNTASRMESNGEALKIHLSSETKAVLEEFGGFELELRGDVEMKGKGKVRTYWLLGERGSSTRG

[3] = biological target: T2, human natriuretic peptide clearance receptor-C (human, UniProt P17342 27-541); test: as above
T2 construct: whole, on cells; also called hNPR-C; human NPR-C
T2 sequence (looked up): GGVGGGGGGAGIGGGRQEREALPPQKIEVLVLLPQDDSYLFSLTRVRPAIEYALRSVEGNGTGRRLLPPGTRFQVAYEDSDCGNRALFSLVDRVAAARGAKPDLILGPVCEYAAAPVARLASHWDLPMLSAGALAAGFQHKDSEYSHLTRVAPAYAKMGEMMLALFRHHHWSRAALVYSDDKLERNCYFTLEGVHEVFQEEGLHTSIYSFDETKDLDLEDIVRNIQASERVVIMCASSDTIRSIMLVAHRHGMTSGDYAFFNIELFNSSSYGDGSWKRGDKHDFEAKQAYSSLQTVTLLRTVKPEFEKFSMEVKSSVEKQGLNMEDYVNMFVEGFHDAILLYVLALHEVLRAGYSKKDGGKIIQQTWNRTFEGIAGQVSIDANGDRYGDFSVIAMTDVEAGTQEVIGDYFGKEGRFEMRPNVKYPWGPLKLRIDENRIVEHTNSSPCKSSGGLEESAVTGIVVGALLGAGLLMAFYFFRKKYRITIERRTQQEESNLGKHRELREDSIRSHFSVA

[4] = isolated human NEP (endopeptidase 24.11) in HEPES buffer, Half-Life (min.), FIG. 7: ANF variants 32 nM/ml, NEP 0.45 μg/ml
[5] = isolated human NEP (endopeptidase 24.11) in HEPES buffer, Half-Life (min.), FIG. 6: ANF variants 0.5 mg/ml, NEP 0.225 mg/ml

Chain of human NEP (hNEP), endopeptidase 24.11 (P08473 whole entry): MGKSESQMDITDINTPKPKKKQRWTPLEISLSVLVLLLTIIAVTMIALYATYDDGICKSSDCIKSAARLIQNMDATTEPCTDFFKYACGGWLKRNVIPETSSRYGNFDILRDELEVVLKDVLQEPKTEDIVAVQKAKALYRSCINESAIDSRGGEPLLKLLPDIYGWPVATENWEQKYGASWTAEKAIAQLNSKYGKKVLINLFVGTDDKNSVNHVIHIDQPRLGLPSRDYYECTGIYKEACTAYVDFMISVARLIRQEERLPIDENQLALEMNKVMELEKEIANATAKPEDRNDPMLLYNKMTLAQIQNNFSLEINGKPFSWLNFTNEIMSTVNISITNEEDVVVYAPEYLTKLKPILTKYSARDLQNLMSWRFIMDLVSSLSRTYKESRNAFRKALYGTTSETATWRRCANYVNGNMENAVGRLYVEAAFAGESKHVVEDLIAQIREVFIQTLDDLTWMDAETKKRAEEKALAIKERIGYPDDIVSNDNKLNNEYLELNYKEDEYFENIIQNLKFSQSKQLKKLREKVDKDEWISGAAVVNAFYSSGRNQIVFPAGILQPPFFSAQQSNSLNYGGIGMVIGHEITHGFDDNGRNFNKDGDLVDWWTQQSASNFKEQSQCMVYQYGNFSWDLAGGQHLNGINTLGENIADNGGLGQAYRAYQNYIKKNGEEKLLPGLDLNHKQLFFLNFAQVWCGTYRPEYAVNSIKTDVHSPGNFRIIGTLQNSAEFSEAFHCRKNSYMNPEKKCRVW

## CC[C@H](C)[C@@H]1NC(=O)[C@H](CCCNC(=N)N)NC(=O)[C@H](CC(=O)O)NC(=O)[C@H]([C@@H](C)CC)NC(=O)[C@H](CCCNC(=N)N)NC(=O)CNC(=O)CNC(=O)[C@H](Cc2ccccc2)NC(=O)[C@@H](NC(=O)[C@H](CO)NC(=O)[C@H](CO)NC(=O)[C@H](CCCNC(=N)N)NC(=O)[C@H](CCCNC(=N)N)NC(=O)[C@H](CC(C)C)NC(=O)[C@H](CO)NC(=O)[C@H](CCCNC(=N)N)NC(=O)[C@@H]2CCCN2C(=O)[C@H](C)NC(=O)[C@@H](N)[C@@H](C)O)CSSC[C@@H](C(=O)N[C@@H](CC(N)=O)C(=O)N[C@@H](CO)C(=O)N[C@@H](Cc2ccccc2)C(=O)N[C@@H](CCCNC(=N)N)C(=O)N[C@@H](Cc2ccc(O)cc2)C(=O)O)NC(=O)CNC(=O)[C@H](CC(C)C)NC(=O)CNC(=O)[C@H](CO)NC(=O)[C@H](CCC(N)=O)NC(=O)[C@H](C)NC(=O)[C@H](CCCNC(=N)N)NC1=O [ANF 23] (H-TAPRSLRRSSCFGGRIDRIRAQSGLGCNSFRY-OH; disulfide 11-27)
[1]
  half-life at 0.5 mg/ml: 12.3 h

## CC[C@H](C)[C@@H]1NC(=O)[C@H](CO)NC(=O)[C@H](CC(=O)O)NC(=O)[C@H]([C@@H](C)CC)NC(=O)[C@H](CCCNC(=N)N)NC(=O)CNC(=O)CNC(=O)[C@H](Cc2ccccc2)NC(=O)[C@@H](NC(=O)[C@H](CO)NC(=O)[C@H](CO)NC(=O)[C@H](CCCNC(=N)N)NC(=O)[C@H](CCCNC(=N)N)NC(=O)[C@H](CC(C)C)NC(=O)[C@@H](N)CO)CSSC[C@@H](C(=O)N[C@@H](CC(N)=O)C(=O)N[C@@H](CO)C(=O)N[C@@H](Cc2ccccc2)C(=O)N[C@@H](CCCNC(=N)N)C(=O)N[C@@H](Cc2ccc(O)cc2)C(=O)O)NC(=O)CNC(=O)[C@H](CC(C)C)NC(=O)CNC(=O)[C@H](CO)NC(=O)[C@H](CCC(N)=O)NC(=O)[C@H](C)NC(=O)[C@H](CCCNC(=N)N)NC1=O [ANF 25] (H-SLRRSSCFGGRIDSIRAQSGLGCNSFRY-OH; disulfide 7-23 (inferred); N-terminus and C-terminus assumed)
[1]; [4]
  half-life at 32 nM/ml: 3.32 h

## CC[C@H](C)[C@@H]1NC(=O)[C@H](CCCNC(=N)N)NC(=O)[C@H](CC(=O)O)NC(=O)[C@H]([C@@H](C)CC)NC(=O)[C@H](CO)NC(=O)CNC(=O)[C@H]([C@@H](C)O)NC(=O)[C@H](CC2CCCCC2)NC(=O)[C@@H](NC(=O)[C@H](CO)NC(=O)[C@H](CO)NC(=O)[C@H](CCCNC(=N)N)NC(=O)[C@H](CCCNC(=N)N)NC(=O)[C@H](CC(C)C)NC(=O)[C@@H](N)CO)CSSC[C@@H](C(=O)N[C@@H](CC(N)=O)C(=O)N[C@@H](CO)C(=O)N[C@@H](Cc2ccccc2)C(=O)N[C@@H](CCCNC(=N)N)C(=O)N[C@@H](Cc2ccc(O)cc2)C(=O)O)NC(=O)CNC(=O)[C@H](CC(C)C)NC(=O)CNC(=O)[C@H](CO)NC(=O)[C@H](CCC(N)=O)NC(=O)[C@H](C)NC(=O)[C@H](CCCNC(=N)N)NC1=O [ANF 79] (H-SLRRSSC[Cha]TGSIDRIRAQSGLGCNSFRY-OH; disulfide 7-23; C-terminus assumed)
[1]; [4]
  half-life at 32 nM/ml: 7.95 h

## CC[C@H](C)[C@@H]1NC(=O)[C@H](CCCNC(=N)N)NC(=O)[C@H](CC(=O)O)NC(=O)[C@H](CCSC)NC(=O)[C@@H]2CCCN2C(=O)[C@H](CCCNC(=N)N)NC(=O)[C@H](CCC(=O)O)NC(=O)[C@H](Cc2ccccc2)NC(=O)[C@@H](NC(=O)[C@H](CO)NC(=O)[C@H](CO)NC(=O)[C@H](CCCNC(=N)N)NC(=O)[C@H](CCCNC(=N)N)NC(=O)[C@H](CC(C)C)NC(=O)[C@@H](N)CO)CSSC[C@@H](C(=O)N[C@@H](CC(N)=O)C(=O)N[C@@H](CO)C(=O)N[C@@H](Cc2ccccc2)C(=O)N[C@@H](CCCNC(=N)N)C(=O)N[C@@H](Cc2ccc(O)cc2)C(=O)O)NC(=O)CNC(=O)[C@H](CC(C)C)NC(=O)CNC(=O)[C@H](CO)NC(=O)[C@H](CCC(N)=O)NC(=O)[C@H](C)NC(=O)CNC1=O [ANF 51] (H-SLRRSSCFERPMDRIGAQSGLGCNSFRY-OH; disulfide 7-23; C-terminus assumed)
[1]; isolated human NEP (endopeptidase 24.11) in HEPES buffer, Half-life, FIG. 8: 32 nM/ml peptide, 0.075 μg/ml NEP
  half-life at 32 nM/ml: 32.1 h
[1]; isolated human NEP (endopeptidase 24.11) in HEPES buffer, Half-life, FIG. 8: 32 nM/ml peptide, 0.15 μg/ml NEP
  half-life at 32 nM/ml: 4.48 h

## CC[C@H](C)[C@@H]1NC(=O)[C@H](CCCNC(=N)N)NC(=O)[C@H](CC(=O)O)NC(=O)[C@H]([C@@H](C)CC)NC(=O)[C@H](CCCNC(=N)N)NC(=O)CNC(=O)CNC(=O)[C@H](Cc2ccccc2)NC(=O)[C@@H](NC(=O)[C@H](CO)NC(=O)[C@H](CO)NC(=O)[C@H](CCCNC(=N)N)NC(=O)[C@H](CCCNC(=N)N)NC(=O)[C@H](CC(C)C)NC(=O)[C@@H](N)CO)CSSC[C@@H](C(=O)N[C@@H](CC(N)=O)C(=O)N[C@@H](CO)C(=O)N[C@@H](Cc2ccccc2)C(=O)N[C@@H](CCCNC(=N)N)C(=O)N[C@@H](Cc2ccc(O)cc2)C(=O)O)NC(=O)CNC(=O)[C@H](CC(C)C)NC(=O)CNC(=O)[C@H](CO)NC(=O)[C@H](CCC(N)=O)NC(=O)[C@H](C)NC(=O)[C@H](CCCNC(=N)N)NC1=O [ANF 24]
[1]; [5]
  half-life at 0.5 mg/ml: 10 h

## CC[C@H](C)[C@@H]1NC(=O)[C@H](CCCNC(=N)N)NC(=O)[C@H](CC(=O)O)NC(=O)[C@H]([C@@H](C)CC)NC(=O)[C@H](CO)NC(=O)CNC(=O)[C@H]([C@@H](C)O)NC(=O)[C@H](Cc2ccccc2)NC(=O)[C@@H](NC(=O)[C@H](CO)NC(=O)[C@H](CO)NC(=O)[C@H](CCCNC(=N)N)NC(=O)[C@H](CCCNC(=N)N)NC(=O)[C@H](CC(C)C)NC(=O)[C@@H](N)CO)CSSC[C@@H](C(=O)N[C@@H](CC(N)=O)C(=O)N[C@@H](CO)C(=O)N[C@@H](Cc2ccccc2)C(=O)N[C@@H](CCCNC(=N)N)C(=O)N[C@@H](Cc2ccc(O)cc2)C(=O)O)NC(=O)CNC(=O)[C@H](CC(C)C)NC(=O)CNC(=O)[C@H](CO)NC(=O)[C@@H]2CCCN2C(=O)[C@H](C)NC(=O)[C@H](CCCNC(=N)N)NC1=O [ANF 31] (H-SLRRSSCFTGSIDRIRAPSGLGCNSFRY-OH; disulfide 7-23; C-terminus assumed)
[1]; [4]
  half-life at 32 nM/ml: 2.97 h

## CC[C@H](C)[C@@H]1NC(=O)[C@H](CCCNC(=N)N)NC(=O)[C@H](CC(=O)O)NC(=O)[C@H](CCSC)NC(=O)[C@H](CO)NC(=O)CNC(=O)[C@H]([C@@H](C)O)NC(=O)[C@H](Cc2ccccc2)NC(=O)[C@@H](NC(=O)[C@H](CO)NC(=O)[C@H](CO)NC(=O)[C@H](CCCNC(=N)N)NC(=O)[C@H](CCCNC(=N)N)NC(=O)[C@H](CC(C)C)NC(=O)[C@@H](N)CO)CSSC[C@@H](C(=O)N[C@@H](CC(N)=O)C(=O)N[C@@H](CO)C(=O)N[C@@H](Cc2ccccc2)C(=O)N[C@@H](CCCNC(=N)N)C(=O)N[C@@H](Cc2ccc(O)cc2)C(=O)O)NC(=O)CNC(=O)[C@H](CC(C)C)NC(=O)CNC(=O)[C@H](CO)NC(=O)[C@H](CCC(N)=O)NC(=O)[C@H](C)NC(=O)CNC1=O [ANF 50] (H-SLRRSSCFTGSMDRIGAQSGLGCNSFRY-OH; disulfide 7-23; C-terminus assumed)
[1]; [5]
  half-life at 0.5 mg/ml: 1.55 h

## SLDRSSCFTGSLDSIRA[hCys]SGLGCNSFR[hCys] (disulfide 18-28, 7-23) [ANF 70]
[2]
  IC50: 3.3 nM

## SLRRSSC[dS]FTGSIDRIRAQSGLGCNSFRY (disulfide 7-24) [ANF 74]
[2]
  IC50: 29.4 nM
[3]
  IC50: 10000 nM

## SLRRSSC[dA]FTGSIDRIRAQSGLGCNSFRY (disulfide 7-24) [ANF 75]
[2]
  IC50: 2.08 nM
[3]
  IC50: 2000 nM
